From ChEMBL document CHEMBL1201862, “PubChem BioAssay data set” (2004)
Calls of active or inactive are those of the source.

What was measured:
[1] = biological target: T1, Coagulation factor XII (Homo sapiens, UniProt P00748); type: functional;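 also: activated factor XIIa alpha cleaving a fluorogenic AMC peptide substrate; inhibitor potency from loss of enzyme activity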
T1 sequence (P00748 whole entry): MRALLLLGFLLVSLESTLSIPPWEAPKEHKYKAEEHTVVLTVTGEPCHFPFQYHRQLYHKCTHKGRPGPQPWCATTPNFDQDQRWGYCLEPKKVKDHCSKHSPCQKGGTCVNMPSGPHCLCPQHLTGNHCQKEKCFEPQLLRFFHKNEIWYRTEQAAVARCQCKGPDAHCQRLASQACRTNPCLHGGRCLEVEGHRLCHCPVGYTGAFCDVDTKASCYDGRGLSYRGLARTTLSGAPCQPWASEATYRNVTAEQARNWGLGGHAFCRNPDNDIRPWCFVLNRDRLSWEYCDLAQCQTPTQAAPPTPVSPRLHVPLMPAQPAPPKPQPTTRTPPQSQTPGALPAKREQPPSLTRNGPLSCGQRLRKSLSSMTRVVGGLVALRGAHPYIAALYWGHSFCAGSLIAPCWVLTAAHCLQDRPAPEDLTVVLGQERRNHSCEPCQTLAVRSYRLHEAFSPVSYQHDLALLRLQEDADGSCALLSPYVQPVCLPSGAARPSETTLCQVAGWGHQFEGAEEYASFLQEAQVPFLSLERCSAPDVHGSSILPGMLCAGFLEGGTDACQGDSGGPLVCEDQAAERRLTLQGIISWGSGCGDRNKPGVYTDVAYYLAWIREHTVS

[2] = inhibitors of Vif binding to APOBEC3G peptide, primary screen, biochemical, TR-FRET, GST-Vif 1-94, biotin-A3G peptide, dose response retest (AID 1117319); type: functional;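 also: TR-FRET signal of purified GST-Vif binding a biotinylated A3G peptide; inhibitors lower the FRET signal by blocking Vif and A3G binding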
[3] = biological target: DNA dC->dU-editing enzyme APOBEC-3A (Homo sapiens, UniProt P31941); assay: APOBEC3A DNA deaminase inhibitors, dose response, biochemical (AID 504722); type: functional
[4] = biological target: T2, Voltage-gated N-type calcium channel alpha-1B subunit/Amyloid beta A4 precursor protein-binding family A member 1 (Homo sapiens, UniProt Q00975+Q02410); type: protein assay
[5] = Luminescence Cell-Based Dose Confirmation HTS to Identify Activators of 5'UTR Stem-Loop Driven Alpha-Synuclein mRNA Translation in H4 Neuroglioblastoma Cells. [Related pubchem assays: 1829 (Project Summary), 1814 (Primary HTS)]; type: functional
[6] = Luminescence Cell-Based Dose Response HTS to Identify Activators of Luciferase Translation or Activity in H4 […] Cells. [Related pubchem assays: 1829 (Project Summary), 1814 (Primary HTS)]; type: functional
[7] = biological target: DNA dC->dU-editing enzyme APOBEC-3G (Homo sapiens, UniProt Q9HC16); assay: Dose Response confirmation of small molecule APOBEC3G DNA Deaminase Inhibitors via a fluorescence-based single-stranded DNA deaminase assay. [Related pubchem assays (depositor defined):AID493012, AID493028]; type: functional
[8] = biological target: T2, Voltage-gated N-type calcium channel alpha-1B subunit/Amyloid beta A4 precursor protein-binding family A member 1; type: protein assay; remark: listed apart in the source
[9] = biological target: Large T antigen (Simian virus 40, UniProt P03070); type: functional, Betapolyomavirus macacae;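 also: Confirmatory-stage PubChem screen for compounds that inhibit SV40 T antigen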
[10] = biological target: T3, Protein Tat (Human immunodeficiency virus type 1 group M subtype B (isolate HXB2)(HIV-1), UniProt P04608); type: functional;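 also: tat binding to TAR RNA read out by fluorescence polarization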
T3 sequence (P04608 whole entry): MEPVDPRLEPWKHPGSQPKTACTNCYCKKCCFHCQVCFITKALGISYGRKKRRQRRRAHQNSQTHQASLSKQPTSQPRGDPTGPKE

[11] = test system: H4; assay: Luminescence Cell-Based Dose Response HTS to Identify Activators of 5'UTR Stem-Loop Driven Prion Protein mRNA Translation in H4 Neuroglioblastoma Cells. [Related pubchem assays: 1829 (Project Summary), 1814 (Primary HTS)]; type: functional; settings: Homo sapiens
[12] = biological target: Beta-galactosidase (Escherichia coli, UniProt Q8VNN2); assay: Dose response counterscreen for EBI2 assay utilizing the enzyme, b-galactosidase.; type: functional
[13] = biological target: Peroxisome proliferator-activated receptor gamma/Nuclear receptor coactivator 2 (Homo sapiens, UniProt P37231); assay: (§1) TR-FRET dose response biochemical High Throughput Screening assay for agonists of the steroid receptor coactivator 2 (SRC-2) recruitment by the peroxisome proliferator-activated receptor gamma (PPAR gamma): non-selective agonists. [Related pubchem assays: 1297, 1032 ]; type: functional
[14] = biological target: Peroxisome proliferator-activated receptor gamma/Nuclear receptor coactivator 1 (Homo sapiens, UniProt P37231); assay: as §1, with “1 (SRC-1)” for “2 (SRC-2)”, “assays (depositor defined):AID1300, AID1808, AID504735, AID631]” for “assays: 1297, 1032 ]”; type: protein assay
[15] = cytotoxicity toward NIH3T3 fibroblasts, dose response, counter-screen, cell-based, ATP luminescence, mouse fibroblasts (AID 2010); type: functional;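 also: cells exposed to compound for about 90 hours before reading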
[16] = biological target: Peroxisome proliferator-activated receptor gamma/Nuclear receptor coactivator 3 (Homo sapiens, UniProt P37231); assay: as §1, with “3 (SRC-3)” for “2 (SRC-2)”, “1301 (Confirmation screen.), 1048 (Primary screen.)]” for “1297, 1032 ]”; type: functional
[17] = inhibitors of intracellular T. cruzi replication, confirmation, NIH3T3 host cells, beta-gal luminescence (AID 2044); type: functional, cell-based;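 also: intracellular parasites grown in NIH/3T3 mouse fibroblasts as host cells; luminescent beta-galactosidase reporter signal from transgenic T. cruzi replicating inside host cells; inhibitors lower the luminescence signal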
[18] = biological target: Prothrombin (Homo sapiens, UniProt P00734); assay: Thrombin 1536 HTS Dose Response Confirmation. [Related pubchem assays: 1046 (Thrombin 1536 HTS; hits were confirmed in this assay)]; type: functional
[19] = biological target: Beta-lactamase (Salmonella choleraesuis (strain SC-B67), UniProt Q5J463)
[20] = biological target: G-protein coupled receptor 35 (Homo sapiens, UniProt Q9HC97); assay: GPR35 antagonists blocking zaprinast-driven arrestin recruitment, primary screen, imaging, U2OS, beta-arrestin-GFP, zaprinast agonist (AID 2058); type: functional;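 also: antagonist potency meaning inhibition of agonist-induced arrestin redistribution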
[21] = biological target: T4, RNA-binding protein pos-1 (Caenorhabditis elegans, UniProt G5EF15); assay: inhibitors of POS-1/mex-3 RNA binding, dose response, biochemical, fluorescence polarization (AID 1964);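 also: purified POS-1 fused to maltose binding protein made in E. coli; potency of compounds blocking POS-1 binding to fluorescent RNA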
T4 sequence (G5EF15 whole entry): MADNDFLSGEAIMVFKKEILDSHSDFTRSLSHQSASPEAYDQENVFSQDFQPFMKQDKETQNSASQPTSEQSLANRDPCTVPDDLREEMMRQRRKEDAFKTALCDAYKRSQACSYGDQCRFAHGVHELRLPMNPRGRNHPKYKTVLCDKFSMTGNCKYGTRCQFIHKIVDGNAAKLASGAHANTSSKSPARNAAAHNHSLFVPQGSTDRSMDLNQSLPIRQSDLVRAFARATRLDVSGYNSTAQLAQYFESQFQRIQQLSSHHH

[22] = biological target: T5, Zinc finger protein mex-5 (Caenorhabditis elegans, UniProt Q9XUB2); assay: MEX-5/TCR-2 RNA interaction inhibitors, dose response, biochemical, C. elegans, fluorescence polarization (AID 1960)
T5 sequence (Q9XUB2 whole entry): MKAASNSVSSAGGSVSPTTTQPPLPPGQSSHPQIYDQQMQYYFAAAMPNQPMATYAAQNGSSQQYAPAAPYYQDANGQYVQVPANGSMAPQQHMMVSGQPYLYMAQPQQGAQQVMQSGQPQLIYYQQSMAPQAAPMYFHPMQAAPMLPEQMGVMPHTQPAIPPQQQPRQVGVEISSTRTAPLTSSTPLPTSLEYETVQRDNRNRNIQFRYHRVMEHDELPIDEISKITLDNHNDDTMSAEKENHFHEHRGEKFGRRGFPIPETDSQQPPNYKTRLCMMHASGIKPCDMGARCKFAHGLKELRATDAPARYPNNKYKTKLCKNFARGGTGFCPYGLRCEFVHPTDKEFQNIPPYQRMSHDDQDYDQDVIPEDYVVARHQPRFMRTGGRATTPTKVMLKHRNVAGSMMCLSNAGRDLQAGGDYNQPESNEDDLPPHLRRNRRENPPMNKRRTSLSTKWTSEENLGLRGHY

[23] = biological target: Beta-lactamase (Pseudomonas aeruginosa, UniProt Q79MP6);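 also: biochemical dose-response test of metallo-beta-lactamase enzyme inhibition, read out by epi-absorbance; purified recombinant IMP-1 metallo-beta-lactamase with nitrocefin as substrate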
[24] = biological target: Troponin, cardiac muscle (Homo sapiens, UniProt P19429+P45379+P63316); assay: Fluorescence-based biochemical high throughput dose response assay for activators of the calcium sensitivity of cardiac Regulated Thin Filaments (RTF). [Related pubchem assays (depositor defined):AID493008, AID493018, AID504382, AID504383]; type: protein-complex assay

T2 sequence (Q00975 whole entry): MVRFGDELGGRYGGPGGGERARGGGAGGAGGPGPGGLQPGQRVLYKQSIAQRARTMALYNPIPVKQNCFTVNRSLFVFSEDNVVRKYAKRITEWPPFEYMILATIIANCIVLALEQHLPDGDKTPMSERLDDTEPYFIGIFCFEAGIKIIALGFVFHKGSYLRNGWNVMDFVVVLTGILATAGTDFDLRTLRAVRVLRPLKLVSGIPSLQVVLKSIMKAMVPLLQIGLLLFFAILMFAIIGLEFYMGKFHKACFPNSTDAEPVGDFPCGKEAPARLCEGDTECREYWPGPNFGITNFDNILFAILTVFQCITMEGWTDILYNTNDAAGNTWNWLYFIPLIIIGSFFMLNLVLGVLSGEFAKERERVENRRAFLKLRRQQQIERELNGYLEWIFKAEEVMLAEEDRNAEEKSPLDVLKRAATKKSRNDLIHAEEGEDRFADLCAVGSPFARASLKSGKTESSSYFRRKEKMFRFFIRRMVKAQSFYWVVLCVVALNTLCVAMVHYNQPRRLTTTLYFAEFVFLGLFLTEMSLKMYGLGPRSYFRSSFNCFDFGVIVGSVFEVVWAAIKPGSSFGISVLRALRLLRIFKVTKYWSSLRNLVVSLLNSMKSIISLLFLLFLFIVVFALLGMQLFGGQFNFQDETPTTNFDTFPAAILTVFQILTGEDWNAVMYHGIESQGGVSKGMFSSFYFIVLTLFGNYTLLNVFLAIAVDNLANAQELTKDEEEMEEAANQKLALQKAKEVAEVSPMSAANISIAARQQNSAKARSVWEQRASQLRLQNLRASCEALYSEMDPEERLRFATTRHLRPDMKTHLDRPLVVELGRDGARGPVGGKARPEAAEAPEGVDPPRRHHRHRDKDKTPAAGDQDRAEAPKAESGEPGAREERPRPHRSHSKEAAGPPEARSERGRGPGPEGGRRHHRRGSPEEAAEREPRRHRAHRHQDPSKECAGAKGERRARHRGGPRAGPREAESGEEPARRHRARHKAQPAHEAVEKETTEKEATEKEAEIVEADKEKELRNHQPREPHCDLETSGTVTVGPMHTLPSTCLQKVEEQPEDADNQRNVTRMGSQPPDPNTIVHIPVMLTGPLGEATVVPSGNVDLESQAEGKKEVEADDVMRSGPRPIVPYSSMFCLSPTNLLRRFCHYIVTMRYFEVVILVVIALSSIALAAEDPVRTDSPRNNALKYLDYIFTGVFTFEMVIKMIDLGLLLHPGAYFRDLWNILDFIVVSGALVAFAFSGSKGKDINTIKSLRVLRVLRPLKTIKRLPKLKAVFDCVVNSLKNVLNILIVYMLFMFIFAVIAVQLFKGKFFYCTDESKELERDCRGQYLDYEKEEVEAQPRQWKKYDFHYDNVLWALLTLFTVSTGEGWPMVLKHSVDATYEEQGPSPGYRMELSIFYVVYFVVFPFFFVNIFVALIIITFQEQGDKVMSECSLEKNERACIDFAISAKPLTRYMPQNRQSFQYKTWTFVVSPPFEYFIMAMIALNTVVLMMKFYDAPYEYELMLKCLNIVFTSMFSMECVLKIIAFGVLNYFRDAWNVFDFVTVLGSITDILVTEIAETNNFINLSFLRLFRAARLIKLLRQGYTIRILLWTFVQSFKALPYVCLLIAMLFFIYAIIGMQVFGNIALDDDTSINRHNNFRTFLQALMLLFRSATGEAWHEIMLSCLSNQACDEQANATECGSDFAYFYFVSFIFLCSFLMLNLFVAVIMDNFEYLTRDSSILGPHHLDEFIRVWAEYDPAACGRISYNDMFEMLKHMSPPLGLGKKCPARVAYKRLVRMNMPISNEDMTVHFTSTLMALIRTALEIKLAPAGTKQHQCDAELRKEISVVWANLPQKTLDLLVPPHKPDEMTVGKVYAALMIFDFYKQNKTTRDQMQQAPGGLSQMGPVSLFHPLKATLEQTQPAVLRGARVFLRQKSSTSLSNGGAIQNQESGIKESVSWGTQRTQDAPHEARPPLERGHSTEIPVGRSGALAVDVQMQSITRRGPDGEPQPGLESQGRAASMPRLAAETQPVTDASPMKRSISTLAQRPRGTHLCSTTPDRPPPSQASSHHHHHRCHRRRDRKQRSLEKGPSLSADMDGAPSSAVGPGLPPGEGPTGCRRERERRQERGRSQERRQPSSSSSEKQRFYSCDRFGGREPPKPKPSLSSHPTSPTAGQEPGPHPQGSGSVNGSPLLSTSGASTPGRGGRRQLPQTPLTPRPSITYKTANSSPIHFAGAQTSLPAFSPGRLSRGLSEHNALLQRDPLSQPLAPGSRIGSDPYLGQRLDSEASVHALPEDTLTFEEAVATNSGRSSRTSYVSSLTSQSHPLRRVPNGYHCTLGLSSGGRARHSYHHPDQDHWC
T2 sequence (Q02410 whole entry): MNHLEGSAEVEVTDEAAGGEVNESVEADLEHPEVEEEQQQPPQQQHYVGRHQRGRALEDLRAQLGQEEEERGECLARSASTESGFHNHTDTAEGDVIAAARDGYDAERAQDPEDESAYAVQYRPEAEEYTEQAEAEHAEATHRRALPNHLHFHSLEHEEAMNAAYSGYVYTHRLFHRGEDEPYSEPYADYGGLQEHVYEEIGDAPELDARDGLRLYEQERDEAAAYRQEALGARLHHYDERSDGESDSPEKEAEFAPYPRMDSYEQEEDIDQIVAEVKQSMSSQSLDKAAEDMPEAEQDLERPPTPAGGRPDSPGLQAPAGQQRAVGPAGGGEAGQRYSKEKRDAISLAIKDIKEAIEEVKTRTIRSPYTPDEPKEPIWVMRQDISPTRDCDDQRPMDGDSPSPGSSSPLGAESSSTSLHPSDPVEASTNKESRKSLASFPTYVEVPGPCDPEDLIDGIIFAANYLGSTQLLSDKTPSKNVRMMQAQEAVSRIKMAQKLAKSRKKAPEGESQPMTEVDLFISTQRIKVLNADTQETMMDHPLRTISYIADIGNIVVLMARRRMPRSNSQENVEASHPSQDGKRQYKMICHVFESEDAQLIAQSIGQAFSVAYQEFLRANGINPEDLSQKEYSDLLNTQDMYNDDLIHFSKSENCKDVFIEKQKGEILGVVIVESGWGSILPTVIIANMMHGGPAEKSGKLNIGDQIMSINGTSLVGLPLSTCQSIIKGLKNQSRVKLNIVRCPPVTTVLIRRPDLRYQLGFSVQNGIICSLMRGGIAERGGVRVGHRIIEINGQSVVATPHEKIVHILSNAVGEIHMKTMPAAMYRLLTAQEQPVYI
Sequence of Large T antigen (P03070 whole entry): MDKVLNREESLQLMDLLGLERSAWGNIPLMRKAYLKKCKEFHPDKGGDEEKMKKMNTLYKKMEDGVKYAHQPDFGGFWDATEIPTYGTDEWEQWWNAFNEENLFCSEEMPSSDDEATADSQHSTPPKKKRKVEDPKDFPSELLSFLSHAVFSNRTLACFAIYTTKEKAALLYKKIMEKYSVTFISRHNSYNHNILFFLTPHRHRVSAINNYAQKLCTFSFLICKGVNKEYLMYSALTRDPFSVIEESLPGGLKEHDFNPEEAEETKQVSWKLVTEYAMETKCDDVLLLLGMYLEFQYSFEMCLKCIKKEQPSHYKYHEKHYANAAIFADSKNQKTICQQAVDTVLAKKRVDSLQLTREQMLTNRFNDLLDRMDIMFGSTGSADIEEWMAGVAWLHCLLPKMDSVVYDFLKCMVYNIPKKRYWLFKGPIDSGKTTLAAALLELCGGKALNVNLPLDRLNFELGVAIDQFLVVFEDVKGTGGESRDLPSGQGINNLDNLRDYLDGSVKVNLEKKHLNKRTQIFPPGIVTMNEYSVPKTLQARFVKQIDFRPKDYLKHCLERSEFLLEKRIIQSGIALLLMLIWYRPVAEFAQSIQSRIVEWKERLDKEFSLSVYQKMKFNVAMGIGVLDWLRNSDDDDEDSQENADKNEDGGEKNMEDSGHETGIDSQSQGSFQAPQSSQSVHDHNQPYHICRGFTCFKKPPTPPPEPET
Sequence of Beta-galactosidase (Q8VNN2 whole entry): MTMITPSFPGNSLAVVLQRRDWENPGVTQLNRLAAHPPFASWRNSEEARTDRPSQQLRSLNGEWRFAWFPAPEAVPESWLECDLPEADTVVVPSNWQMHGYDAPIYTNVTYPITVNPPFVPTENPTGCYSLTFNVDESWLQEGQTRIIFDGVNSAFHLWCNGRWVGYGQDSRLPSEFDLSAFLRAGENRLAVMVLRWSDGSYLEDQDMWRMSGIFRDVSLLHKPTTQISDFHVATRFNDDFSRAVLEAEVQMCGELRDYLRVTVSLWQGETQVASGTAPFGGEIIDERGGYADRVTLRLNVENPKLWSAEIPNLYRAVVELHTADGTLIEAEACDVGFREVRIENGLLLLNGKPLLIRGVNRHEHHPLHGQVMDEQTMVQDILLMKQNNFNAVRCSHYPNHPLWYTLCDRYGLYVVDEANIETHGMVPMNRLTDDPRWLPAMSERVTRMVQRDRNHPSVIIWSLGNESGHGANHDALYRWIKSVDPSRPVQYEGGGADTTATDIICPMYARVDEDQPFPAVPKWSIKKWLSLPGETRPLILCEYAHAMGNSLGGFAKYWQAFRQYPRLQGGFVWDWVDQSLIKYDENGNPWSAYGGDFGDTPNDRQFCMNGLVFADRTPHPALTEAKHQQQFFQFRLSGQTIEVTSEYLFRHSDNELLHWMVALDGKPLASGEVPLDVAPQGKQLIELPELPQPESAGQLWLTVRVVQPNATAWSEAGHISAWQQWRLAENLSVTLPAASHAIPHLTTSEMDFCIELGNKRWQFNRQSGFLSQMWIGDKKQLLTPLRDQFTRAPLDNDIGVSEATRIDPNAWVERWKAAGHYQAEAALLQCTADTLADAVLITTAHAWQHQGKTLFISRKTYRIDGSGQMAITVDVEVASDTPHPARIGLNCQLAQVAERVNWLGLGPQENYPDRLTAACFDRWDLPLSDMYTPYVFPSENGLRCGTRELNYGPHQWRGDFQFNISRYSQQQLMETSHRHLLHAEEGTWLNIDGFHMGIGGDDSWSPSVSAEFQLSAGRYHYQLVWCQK
Sequence of DNA dC->dU-editing enzyme APOBEC-3A (P31941 whole entry): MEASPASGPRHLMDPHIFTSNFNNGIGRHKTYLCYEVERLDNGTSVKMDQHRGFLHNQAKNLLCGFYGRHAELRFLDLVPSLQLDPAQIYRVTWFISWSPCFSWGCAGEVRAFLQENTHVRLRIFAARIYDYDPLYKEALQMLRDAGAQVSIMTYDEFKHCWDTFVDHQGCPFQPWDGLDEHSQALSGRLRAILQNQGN

For `Cc1cc(C)n2nc(SCC(=O)Nc3ccc(F)cc3)nc2n1`, which IC50 [1] is on record?
Its IC50 is > 50 µM (inactive).

For `Cc1ccc(N2CSC3=C(C#N)C(c4cccs4)CC(=O)N3C2)cc1` (stereo not given), which IC50 [2] is on record?
Its IC50 is > 100 µM (active).

What about the IC50 [3] of the same compound?
Its IC50 is > 100 µM (inactive).

And the IC50 [4]?
The IC50 was 3.74 µM (active).

What about the EC50 [5] of the same compound?
Its EC50 is 13.2 µM (active).

And the EC50 [6]?
The EC50 was 17 µM (active).

What about the IC50 [7] of the same compound?
The IC50 was 5.19 µM (active).

What about the IC50 [8] of the same compound?
The IC50 was > 50 µM (inactive).

And the IC50 [9]?
The IC50 was > 100 µM (active).

And the IC50 [10]?
Its IC50 is > 100 µM (active).

What about the EC50 [11] of the same compound?
The EC50 was 7.71 µM (active).

With `CN=C(S)N1N=C(c2ccc(Br)cc2)CC1c1ccc(Br)cc1` (stereo not given) as the compound, how does the IC50 [12] read?
The IC50 was > 80 µM (inactive).

And the EC50 [13]?
The EC50 was > 8.82 µM (not active).

And the EC50 [14]?
The EC50 was > 2.94 µM (active).

What about the EC50 [15] of the same compound?
Its EC50 is > 60 µM (not active).

And the EC50 [16]?
Its EC50 is > 26.5 µM (not active).

What about the EC50 [17] of the same compound?
Its EC50 is 1.64 µM (active).

With `CC(=O)NNC(=S)NC(=O)c1ccccc1` as the compound, how does the IC50 [18] read?
The IC50 was > 50 µM (inconclusive).

And the IC50 [1]?
Its IC50 is > 50 µM (inactive).

With `CN1C(=O)/C(=C\c2ccc(N(C)C)cc2)OC1=S` as the compound, how does the IC50 [19] read?
Its IC50 is > 59.6 µM (inactive).

What about the IC50 [20] of the same compound?
Its IC50 is 1.12 µM (active).

What about the EC50 [21] of the same compound?
Its EC50 is > 300 µM (not active).

What about the EC50 [22] of the same compound?
The EC50 was > 300 µM (inconclusive).

And the IC50 [23]?
Its IC50 is > 59.6 µM (inactive).

Which EC50 [24] does the source give for `CC(C(=O)c1ccc(Br)cc1)[n+]1cccc2ccccc21` (stereo not given) here?
The EC50 was 15.2 µM (inactive).
